Assay results taken from ChEMBL document CHEMBL1201862, “PubChem BioAssay data set” (2004).
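Test compounds were applied to cells in 96-well plates for 48 hours at 5 doses. GI50 = concentration required for 50% inhibition of growth.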 Active and inactive are the calls of the source. Cut-off read from the data, not from the text of the source: active = GI50 up to about 1.1 µM and inactive = higher.

Legend:
Test in all cases: growth of human tumour cells (NCI), 48 h
HOP-18 = test system: HOP-18
KM-20L2 = test system: KM-20L2
LXFL 529 = test system: LXFL 529
M19-MEL = test system: M19-MEL
SNB-78 = test system: SNB-78
RXF 631 = test system: RXF 631
MCF7 = test system: MCF7
MDA-N = test system: MDA-N
NCI/ADR-RES = test system: NCI/ADR-RES

| SMILES | GI50 (HOP-18) | GI50 (KM-20L2) | GI50 (LXFL 529) | GI50 (M19-MEL) | GI50 (SNB-78) | GI50 (RXF 631) | GI50 (MCF7) | GI50 (MDA-N) | GI50 (NCI/ADR-RES) |
| --- | --- | --- | --- | --- | --- | --- | --- | --- | --- |
| O=C(Nc1cccc(O)c1)C(=O)C(C(=O)c1ccc(Cl)c(Cl)c1)C1OC(=O)c2ccccc21 (stereo unspecified) | 25.5 µM (inactive) | 18.8 µM (inactive) | 12.2 µM (inactive) | 12.4 µM (inactive) | 7.08 µM (inactive) |  |  |  |  |
| Cn1c(=O)c2c3ccccc3c(C(=O)c3ccccc3)n2c2ccccc21 | 18.7 µM (inactive) | 3.8 µM (inactive) | > 24.5 µM (inactive) | 3.68 µM (inactive) | 63.2 µM (inactive) |  |  |  |  |
| Cc1ccc(NC(=O)C2C3CCC(O3)C2C(=O)O)cc1 (stereo unspecified) | > 86.3 µM (inactive) | > 26.6 µM (inactive) | > 46.2 µM (inactive) | > 61.2 µM (inactive) | > 86.7 µM (inactive) | 53.7 µM (inactive) |  |  |  |
| CN1CCN(CCn2c3c4ccccc4ccc3c3oc(=O)c4ccccc4c32)CC1 | 12.6 µM (inactive) | 2.58 µM (inactive) | 4.06 µM (inactive) | 10.8 µM (inactive) | 11.4 µM (inactive) | 5.19 µM (inactive) | 1.55 µM (inactive) | 1.56 µM (inactive) | 6.87 µM (inactive) |
| Cc1cc2c(=O)cc(-c3ccncc3)oc2c(C(=O)O)c1C | > 100 µM (inactive) | > 100 µM (inactive) | > 100 µM (inactive) | > 100 µM (inactive) | > 100 µM (inactive) | > 100 µM (inactive) |  |  |  |
| COC(=O)C(=O)C(C(=O)C(=O)Nc1ccc([N+](=O)[O-])cc1)c1nc2ccccc2nc1O (stereo unspecified) | > 100 µM (inactive) | 22.1 µM (inactive) | 34.2 µM (inactive) | > 100 µM (inactive) |  | > 100 µM (inactive) |  |  |  |
| Cc1cc(O)nc(CNC(=O)c2cccc(C(=O)NCc3cc(O)nc(C)n3)c2)n1 | 68.5 µM (inactive) | > 100 µM (inactive) | > 100 µM (inactive) | > 100 µM (inactive) | > 100 µM (inactive) |  |  |  |  |
| Cc1c(C(=O)C/C(=N/NC(=O)C[n+]2ccccc2)C(=O)Nc2ccccc2)[n+]([O-])c2ccccc2[n+]1[O-] | > 100 µM (inactive) | > 100 µM (inactive) | > 100 µM (inactive) | > 100 µM (inactive) | > 100 µM (inactive) | > 100 µM (inactive) |  |  |  |
| Cc1ccc(NC(=O)CC(=O)n2nc(-c3ccccc3)c(/N=N/c3ccc(Cl)cc3)c2-c2ccccc2)cc1 | 39 µM (inactive) | 49.9 µM (inactive) | 64.7 µM (inactive) | 22 µM (inactive) | > 100 µM (inactive) | > 100 µM (inactive) |  |  |  |
| CCC(CO)COC(=O)/C=C/C(=O)OCC(CC)CO (stereo unspecified) | > 100 µM (inactive) | > 100 µM (inactive) | 78.7 µM (inactive) | > 100 µM (inactive) | > 100 µM (inactive) | > 100 µM (inactive) |  |  |  |
| CC(=O)N1C(=O)C(=O)c2cc(Cl)ccc21 | > 100 µM (inactive) |  | > 100 µM (inactive) | > 100 µM (inactive) | > 100 µM (inactive) | > 100 µM (inactive) |  |  |  |
| Cc1ccc(S(=O)(=O)OC(C=O)C(O)C(O)COC(c2ccccc2)(c2ccccc2)c2ccccc2)cc1 (stereo unspecified) |  | 14.1 µM (inactive) | 12.8 µM (inactive) | 13.1 µM (inactive) |  | 0.46 µM (active) |  |  |  |
| O=C(Nc1cccc(Cl)c1)c1cc2cc(/N=N/c3ccc(Br)cc3)ccc2oc1=O | 63.2 µM (inactive) | 45.1 µM (inactive) | 14.1 µM (inactive) | > 10 µM (inactive) | 52.8 µM (inactive) | 68.1 µM (inactive) |  |  |  |
| OC1CN(OC/C=C/c2ccccc2)CC(O)C1O (stereo unspecified) | > 100 µM (inactive) | > 100 µM (inactive) | 60.1 µM (inactive) | > 100 µM (inactive) | > 100 µM (inactive) |  |  |  |  |
| NC(CCSCCF)C(=O)O (stereo unspecified) | > 100 µM (inactive) | > 100 µM (inactive) | > 100 µM (inactive) | > 100 µM (inactive) | > 100 µM (inactive) |  |  |  |  |
| C=C1CC(CCCl)(c2ccccc2)OC1=O (stereo unspecified) | > 42.9 µM (inactive) | 61.8 µM (inactive) | 20 µM (inactive) | 34.7 µM (inactive) | 42.2 µM (inactive) | > 42.7 µM (inactive) |  |  |  |
| CCOC(=O)/C(=C/c1ccccc1Br)P(=O)(OCC)OCC | 3.34 µM (inactive) | 2.25 µM (inactive) | 1.29 µM (inactive) | 1.55 µM (inactive) |  | 2.5 µM (inactive) |  |  |  |
| COc1nc(OC)nc(Sc2ccc(Sc3ccc(Sc4nc(OC)nc(OC)n4)cc3)cc2)n1 | > 100 µM (inactive) | > 100 µM (inactive) | > 100 µM (inactive) | > 100 µM (inactive) | > 100 µM (inactive) |  |  |  |  |
| COc1c(OC2OC(CO)C(O)C(O)C2O)cc2c(c1OC)-c1ccc(OC)c(=O)cc1C(NC(C)=O)CC2 (stereo unspecified) | > 100 µM (inactive) | > 100 µM (inactive) | 86.1 µM (inactive) | > 91.2 µM (inactive) | > 100 µM (inactive) | > 100 µM (inactive) |  |  |  |
| Cn1cnc([N+](=O)[O-])c1Sc1nnnn1-c1ccccc1 | 1.58 µM (inactive) |  | 4.27 µM (inactive) | 12.1 µM (inactive) | 13.7 µM (inactive) | 14.2 µM (inactive) |  |  |  |
